According to PubChem BioAssay (NCI):
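All cell lines were grown in 96-well plates and treated with compound for 48 hours. At the GI50, growth is halved. TGI: concentration producing complete growth inhibition.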

Columns and labels:
Test in all cases: growth of human tumour cells (NCI), 48 h
HCT-15 colon = tested on: HCT-15 colon
TK-10 renal = tested on: TK-10 renal
NCI-H226 lung = tested on: NCI-H226 lung
OVCAR-3 ovarian = tested on: OVCAR-3 ovarian
SW-620 colon = tested on: SW-620 colon
MDA-MB-435 = tested on: MDA-MB-435
MCF7 breast = tested on: MCF7 breast
OVCAR-8 ovarian = tested on: OVCAR-8 ovarian
NCI-H522 lung = tested on: NCI-H522 lung
RXF 393 renal = tested on: RXF 393 renal
HS 578T breast = tested on: HS 578T breast
KM12 colon = tested on: KM12 colon
ACHN renal = tested on: ACHN renal
U251 CNS = tested on: U251 CNS
HCT-116 colon = tested on: HCT-116 colon
SF-268 CNS = tested on: SF-268 CNS
OVCAR-4 ovarian = tested on: OVCAR-4 ovarian
DU-145 prostate = tested on: DU-145 prostate
786-0 renal = tested on: 786-0 renal
A549 NSCLC = tested on: A549 NSCLC
SF-539 CNS = tested on: SF-539 CNS
OVCAR-5 ovarian = tested on: OVCAR-5 ovarian
HCC-2998 colon = tested on: HCC-2998 colon
CAKI-1 renal = tested on: CAKI-1 renal
LOX IMVI melanoma = tested on: LOX IMVI melanoma
SK-MEL-28 melanoma = tested on: SK-MEL-28 melanoma
SN12C renal = tested on: SN12C renal
EKVX NSCLC = tested on: EKVX NSCLC
IGROV1 ovarian = tested on: IGROV1 ovarian
COLO 205 colon = tested on: COLO 205 colon
UACC-257 melanoma = tested on: UACC-257 melanoma
BT-549 breast = tested on: BT-549 breast
SK-OV-3 ovarian = tested on: SK-OV-3 ovarian
HOP-92 NSCLC = tested on: HOP-92 NSCLC
UO-31 renal = tested on: UO-31 renal
MALME-3M melanoma = tested on: MALME-3M melanoma
A498 renal = tested on: A498 renal
SF-295 CNS = tested on: SF-295 CNS
NCI-H23 lung = tested on: NCI-H23 lung
NCI/ADR-RES ovarian = tested on: NCI/ADR-RES ovarian
M14 melanoma = tested on: M14 melanoma
T-47D breast = tested on: T-47D breast
SNB-75 CNS = tested on: SNB-75 CNS
SK-MEL-5 melanoma = tested on: SK-MEL-5 melanoma
SNB-19 CNS = tested on: SNB-19 CNS
HL-60(TB) leukemia = tested on: HL-60(TB) leukemia
PC-3 prostate = tested on: PC-3 prostate
HT29 colon = tested on: HT29 colon
SK-MEL-2 melanoma = tested on: SK-MEL-2 melanoma
HOP-62 NSCLC = tested on: HOP-62 NSCLC

## COc1ccc(Nc2nccc(Nc3ccc4[nH]ncc4c3)n2)cc1
HCT-15 colon
  GI50: 1.9 µM
  TGI: 4.28 µM
TK-10 renal
  GI50: 2.45 µM
  TGI: 9.55 µM
NCI-H226 lung
  GI50: 2.3 µM
  TGI: 5.77 µM
OVCAR-3 ovarian
  GI50: 3.15 µM
  TGI: 10.6 µM
SW-620 colon
  GI50: 3.31 µM
  TGI: > 100 µM
MDA-MB-435
  GI50: 2.1 µM
  TGI: 5.7 µM
MCF7 breast
  GI50: 2.05 µM
  TGI: 5.36 µM
OVCAR-8 ovarian
  GI50: 2.24 µM
  TGI: 5.39 µM
NCI-H522 lung
  GI50: 1.86 µM
  TGI: 4.77 µM
RXF 393 renal
  GI50: 1.98 µM
  TGI: 6.45 µM
HS 578T breast
  GI50: 5.02 µM
  TGI: > 100 µM
KM12 colon
  GI50: 3.45 µM
  TGI: 24.2 µM
ACHN renal
  GI50: 2.89 µM
  TGI: 11.7 µM
U251 CNS
  GI50: 3.61 µM
  TGI: 13.6 µM
HCT-116 colon
  GI50: 2.06 µM
  TGI: 4.91 µM
SF-268 CNS
  GI50: 4.2 µM
  TGI: 28.6 µM
OVCAR-4 ovarian
  GI50: 2.99 µM
  TGI: 11.8 µM
DU-145 prostate
  GI50: 3.31 µM
  TGI: 12.9 µM
786-0 renal
  GI50: 1.74 µM
  TGI: 4.75 µM
A549 NSCLC
  GI50: 3.46 µM
  TGI: 14.3 µM
SF-539 CNS
  GI50: 4.38 µM
  TGI: 16.8 µM
OVCAR-5 ovarian
  GI50: 3.33 µM
  TGI: > 100 µM
HCC-2998 colon
  GI50: 2.88 µM
  TGI: 8.05 µM
CAKI-1 renal
  GI50: 2.22 µM
  TGI: 14.9 µM
LOX IMVI melanoma
  GI50: 1.92 µM
  TGI: 3.87 µM
SK-MEL-28 melanoma
  GI50: 3.64 µM
  TGI: 16.5 µM
SN12C renal
  GI50: 3.92 µM
  TGI: > 100 µM
EKVX NSCLC
  GI50: 5 µM
  TGI: 17.9 µM
IGROV1 ovarian
  GI50: 3.36 µM
  TGI: 25.1 µM
COLO 205 colon
  GI50: 2.59 µM
  TGI: 7.21 µM
UACC-257 melanoma
  GI50: 5.41 µM
  TGI: 16.9 µM
BT-549 breast
  GI50: 3.22 µM
  TGI: 12.1 µM
SK-OV-3 ovarian
  GI50: 7.04 µM
  TGI: 21.7 µM
HOP-92 NSCLC
  GI50: 3.13 µM
  TGI: 12.9 µM
UO-31 renal
  GI50: 2.12 µM
  TGI: 11.4 µM
MALME-3M melanoma
  GI50: 3.27 µM
  TGI: 15.9 µM
A498 renal
  GI50: 4.62 µM
  TGI: 17.2 µM
SF-295 CNS
  GI50: 3.78 µM
  TGI: 13.8 µM
NCI-H23 lung
  GI50: 2.35 µM
  TGI: 6.27 µM
NCI/ADR-RES ovarian
  GI50: 2.18 µM
  TGI: 5.75 µM
M14 melanoma
  GI50: 2.39 µM
  TGI: 6.15 µM
T-47D breast
  GI50: 1.77 µM
  TGI: 5.42 µM
SNB-75 CNS
  GI50: 4.58 µM
  TGI: 20.3 µM
SK-MEL-5 melanoma
  GI50: 2.01 µM
  TGI: 4.75 µM
SNB-19 CNS
  GI50: 4.3 µM
  TGI: 87 µM
HL-60(TB) leukemia
  GI50: 2.05 µM
  TGI: 4.67 µM
PC-3 prostate
  GI50: 2.21 µM
  TGI: 7.2 µM
HT29 colon
  GI50: 2.36 µM
  TGI: 8.33 µM
SK-MEL-2 melanoma
  GI50: 2.4 µM
  TGI: 6.39 µM
HOP-62 NSCLC
  GI50: 2.27 µM
  TGI: 5.75 µM
